Laboratory results as given in article PMC5745756, “N,N-disubstituted azines attenuate LPS-mediated neuroinflammation in microglia and neuronal apoptosis via inhibiting MAPK signaling pathways” (BMC Neuroscience, 2017).
Like-named read-outs stand apart in the source and are kept apart here.

Tests used:
Format in all cases: cell-based, murine
[1] = tested on: NO production in LPS-activated BV-2 cells; assay: Nitrite (Griess) assay of NO production in LPS-activated BV-2 cells; conditions: Mus musculus, read-out: IC50, concentration that caused 50% inhibition of NO production in LPS-activated BV-2 cells
Experimental: (§1) […] or MTT assay was performed as described by our previous publication with slight modification. In order to measure MTT and NO production, BV-2 cells were plated into a 96-well plate at a density of 4 × 10^4 cells/well. […] Then, nitrite (a soluble oxidation product of NO) was detected in the culture media by using the Griess reaction. The supernatant (50 µL) was collected and mixed with an equal volume of Griess reagent (1% sulfanilamide in phosphoric acid and 0.1% N-1-napthylethylenediamine dihydrochloride). The absorbance was measured at 570 nm by using a microplate reader. Sodium nitrite was used to create a standard curve from which the NO2 concentration was calculated. The cell viability was evaluated by spectrophotometrically measuring the reduction of yellow 3-[4,5-dimethylthiazol-2-yl]-2,5-diphenyltetrazolium bromide (MTT) to purple formazan crystals. MTT was dissolved in DMEM, added to the culture plate containing cells at a final concentration of 0.5 mg/mL, and incubated for 1 h. The medium containing the MTT solution was carefully removed, and 200 µL DMSO was added to each well. After solubilizing the stained cells to produce a formazan-colored solution, the optical density (OD) was measured on a microplate reader at 570 nm, and the results were expressed as a percentage of the LPS-treated group. The same plate was used for the NO and MTT assays. The cell supernatant was used for the NO assay, and the plated cells were used for the MTT assay.
(§2) The NO production and cell viability of LPS-activated BV-2 cells were measured after treatment with azine derivatives using Griess reagent and MTT assay, respectively.

[2] = MTT cell viability of LPS-activated BV-2 cells; conditions: mouse, LPS-activated BV-2 microglial cells; 20 µM compound; percentage of the LPS-only treatment group; mean ± standard deviation, three experiments
Experimental: as §1, §2

[3] = tested on: BV-2 cells; assay: MTT cell viability of LPS-activated BV-2 cells
Experimental: as §1, §2

[4] = BV-2, 100 ng/mL LPS, 24 h, Griess reaction

SMILES | IC50 [1, 4] | viability at 24 h, 20 µM [2] | IC50 ([1]; BV-2, 24 h) | Toxicity in BV-2 cells (discussion) [3]
COc1ccc(/C=C/C=NN=C/C=C/c2ccc(OC)cc2)cc1 [Compound 1, 1,2-Bis((E)-3-(4-methoxyphenyl)allylidene)hydrazine] | 58.5 µM | 90.3 ± 9.37% |  | 
C/C(C=NN=C/C(C)=C/c1ccccc1)=C\c1ccccc1 [Compound 2, 1,2-Bis((E)-2-methyl-3-phenylallylidene)hydrazine] | 50.1 µM | 96.6 ± 1.75% |  | 
C(=NN=Cc1cnc2ccccc2c1)c1cnc2ccccc2c1 [Compound 4, 1,2-Bis(quinolin-3-ylmethylene)hydrazine] | > 500 µM | 91 ± 3.39% |  | 
O=[N+]([O-])c1ccccc1/C=C/C=NN=C/C=C/c1ccccc1[N+](=O)[O-] [Compound 6, 1,2-Bis((E)-3-(2-nitrophenyl)allylidene)hydrazine] |  | 87.9 ± 19.5% | 47.4 µM | 
Clc1ccc(/C=C/C=NN=C/C=C/c2ccc(Cl)cc2)cc1 [Compound 7, 1,2-Bis((E)-3-(4-chlorophenyl)allylidene)hydrazine] | 39.9 µM | 77.2 ± 5.67% |  | high toxicity
C(C=C(c1ccccc1)c1ccccc1)=NN=CC=C(c1ccccc1)c1ccccc1 [Compound 8, 1,2-Bis(3,3-diphenylallylidene)hydrazine] | 47.9 µM | 69.5 ± 3.25% |  | high toxicity
C(=NN=Cc1ccc(N(c2ccccc2)c2ccccc2)cc1)c1ccc(N(c2ccccc2)c2ccccc2)cc1 [Compound 9, 4,4′-Hydrazine-1,2-diylidenebis(methan-1-yl-1-ylidene)bis(N,N-diphenylaniline)] | 26.3 µM | 83.5 ± 7.78% |  | 
[H]/N=C(/NC)NCCC[C@H](N)C(=O)O [L-NMMA, L-NG-monomethylarginine, reference compound] | 18.3 µM | 100 ± 3.41% |  | 
